The record followed here is article PMC10886839, “Electrochemical DNA Cleavage Sensing for EcoRV Activity and Inhibition with an ERGO Electrode” (Biosensors, 2024).

For this assay, the target named is T1, EcoRV (Escherichia coli, UniProt P04390).
T1 construct: gene ecoRVR; restriction endonuclease, dosed in U/mL; homodimer (known biology)
T1 sequence (P04390 2-245): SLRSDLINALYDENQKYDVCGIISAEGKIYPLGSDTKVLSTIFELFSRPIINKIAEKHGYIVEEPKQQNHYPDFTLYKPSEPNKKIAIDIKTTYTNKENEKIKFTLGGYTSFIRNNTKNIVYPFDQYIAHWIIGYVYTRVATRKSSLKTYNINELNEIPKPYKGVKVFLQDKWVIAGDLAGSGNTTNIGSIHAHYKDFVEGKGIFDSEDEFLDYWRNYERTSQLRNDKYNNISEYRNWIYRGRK
In words: electrochemical DNA cleavage assay (DPV of methylene blue-labelled DNA on ERGO electrode). It counts as biochemical.

Each structure is given as a SMILES string. pIC50: −log10 of the molar value.

As to `O=C(O)C1=CC(=C(c2ccc(O)c(C(=O)O)c2)c2ccc(O)c(C(=O)O)c2)C=CC1=O` [ATA, aurintricarboxylic acid], the pIC50 is 7.02.
